Experimental data as given in patent US20200331904A1, “3-AMINO-[1,2,4]-TRIAZOLE DERIVATIVES AND THEIR USE FOR CONTROLLING UNDESIRED PLANT GROWTH” (Bayer CropScience Aktiengesellschaft, priority 2017, published 2020).

How the values were obtained:
Format in all cases: in vivo
Matricaria inodora = test: Pre-emergence herbicidal efficacy, MATIN
From the text: (§1) C.1 Pre-Emergence Herbicidal Action and Crop Plant Compatibility
(§2) Seeds of monocotyledonous and dicotyledonous weed plants and crop plants are placed in plastic or organic planting pots and covered with soil. The compounds of the invention, formulated in the form of wettable powders (WP) or as emulsion concentrates (EC), are then applied onto the surface of the covering soil as aqueous suspension or emulsion with addition of 0.5% additive at a water application rate of […] (converted). After the treatment, the pots are placed in a greenhouse and kept under good growth conditions for the trial plants. After about 3 weeks, the effect of the preparations is scored visually in comparison with untreated controls as percentages. For example, 100% activity=the plants have died, 0% activity=like control plants.
(§3) ABUTH: Abutilon theophrasti ALOMY: Alopecurus myosuroides AMARE: Amaranthus retroflexus AVEFA: Avena fatua CYPES: Cyperus esculentus ECHCG: Echinochloa crus-galli LOLMU: Lolium multiflorum MATIN: Matricaria inodora PHBPU: Ipomoea purpurea POLCO: Polygonum convolvulus SETVI: Setaria viridis STEME: Stellaria media VERPE: Veronica persica VTOTR: Viola tricolor

Stellaria media = test: Pre-emergence herbicidal efficacy, STEME
From the text: as §1, §2, §3

Viola tricolor = test: Pre-emergence herbicidal efficacy, VIOTR
From the text: as §1, §2, §3

Amaranthus retroflexus = test: Pre-emergence herbicidal efficacy, AMARE; settings: Table B2, application rate 320 g/ha, scored visually after about 3 weeks vs untreated controls
From the text: as §1, §2, §3

Veronica persica = test: Pre-emergence herbicidal efficacy, VERPE; settings: Table B2, application rate 320 g/ha, scored visually after about 3 weeks vs untreated controls
From the text: as §1, §2, §3

[1] = application rate 320 g/ha, scored visually after about 3 weeks
[2] = Table B2, application rate 320 g/ha, scored visually after about 3 weeks vs untreated controls

SMILES	Herbicidal efficacy against MATIN (Matricaria inodora; [1])	Herbicidal efficacy against STEME (Stellaria media; [1])	Herbicidal efficacy against VIOTR (Viola tricolor; [1])	Herbicidal efficacy against AMARE (Amaranthus retroflexus)	Herbicidal efficacy against MATIN (Matricaria inodora; [2])	Herbicidal efficacy against STEME (Stellaria media; [2])	Herbicidal efficacy against VIOTR (Viola tricolor; [2])	Herbicidal efficacy against VERPE (Veronica persica)
c1ccc2c(c1)OCCC2Nc1nc2n(n1)CCCS2 (racemic) [Example I-204]	100%	100%	–	–	–	–	–	–
c1ccc2c(c1)CCCC2Nc1nc2n(n1)CCCS2 (racemic) [Example I-209]	100%	100%	100%	–	–	–	–	–
O=C(C1CC1)N1CCn2nc(NC3CCCc4ccccc43)nc2C1 (stereo not drawn) [Example I-060]	100%	100%	90%	–	–	–	–	–
CC(=O)N1CCn2nc(NC3CCCc4ccccc43)nc2C1 (stereo not drawn) [Example I-061]	100%	100%	100%	–	–	–	–	–
O=S(=O)(Cc1ccccc1)N1CCn2nc(NC3CCOc4ccccc43)nc2C1 (stereo not drawn) [Example I-076]	–	90%	100%	–	–	–	–	–
O=S(=O)(Cc1ccccc1)N1CCn2nc(NC3CCCc4ccccc43)nc2C1 (stereo not drawn) [Example I-078]	70%	90%	100%	–	–	–	–	–
CC(C)S(=O)(=O)N1CCn2nc(NC3CCCc4ccccc43)nc2C1 (stereo not drawn) [Example I-094]	100%	100%	100%	–	–	–	–	–
CS(=O)(=O)N1CCn2nc(NC3CCCc4ccccc43)nc2C1 (stereo not drawn) [Example I-097]	100%	100%	100%	–	–	–	–	–
Cc1ccc2c(c1)[C@H](Nc1nc3n(n1)CCNC3)CCC2 [Example I-157]	80%	100%	100%	–	–	–	–	–
CC(=O)N1CCn2nc(N[C@@H]3CCc4ccccc43)nc2C1 [Example I-158]	90%	100%	100%	–	–	–	–	–
O=C(C1CC1)N1CCn2nc(N[C@@H]3CCc4ccccc43)nc2C1 [Example I-160]	90%	100%	100%	–	–	–	–	–
O=C(c1ccccc1)N1CCn2nc(N[C@@H]3CCCc4ccccc43)nc2C1 [Example I-164]	90%	100%	100%	–	–	–	–	–
Cc1ccc2c(c1)C(Nc1nc3n(n1)CCN(C(=O)c1ccccc1)C3)C(C)C2 (stereo not drawn) [Example I-166]	90%	100%	100%	–	–	–	–	–
Cc1ccc2c(c1)C(Nc1nc3n(n1)CCN(C(=O)c1cccc(C(F)(F)F)c1)C3)C(C)C2 (stereo not drawn) [Example I-168]	80%	90%	100%	–	–	–	–	–
Cc1ccc2c(c1)C(Nc1nc3n(n1)CCN(C(=O)c1ccccc1Cl)C3)C(C)C2 (stereo not drawn) [Example I-169]	90%	100%	100%	–	–	–	–	–
Cc1ccc2c(c1)C(Nc1nc3n(n1)CCN(C(=O)C1CCCCC1)C3)C(C)C2 (stereo not drawn) [Example I-172]	90%	100%	100%	–	–	–	–	–
Cc1ccc2c(c1)[C@H](Nc1nc3n(n1)CCN(C(=O)c1ccccc1)C3)CC2 [Example I-174]	90%	100%	100%	–	–	–	–	–
Cc1ccc2c(c1)[C@H](Nc1nc3n(n1)CCN(C(=O)c1cccc(C(F)(F)F)c1)C3)CC2 [Example I-176]	80%	80%	90%	–	–	–	–	–
Cc1ccc2c(c1)[C@H](Nc1nc3n(n1)CCN(C(=O)c1ccccc1Cl)C3)CC2 [Example I-177]	90%	100%	100%	–	–	–	–	–
Cc1ccc2c(c1)[C@H](Nc1nc3n(n1)CCN(C(=O)c1cccc(Cl)c1)C3)CC2 [Example I-178]	70%	100%	100%	–	–	–	–	–
Cc1ccc2c(c1)[C@H](Nc1nc3n(n1)CCN(C(=O)c1ccc(Cl)cc1)C3)CC2 [Example I-179]	90%	100%	70%	–	–	–	–	–
Cc1ccc2c(c1)[C@H](Nc1nc3n(n1)CCN(C(=O)c1ccccc1)C3)CCC2 [Example I-181]	100%	100%	100%	–	–	–	–	–

SMILES	Herbicidal efficacy against MATIN (Matricaria inodora; [1])	Herbicidal efficacy against STEME (Stellaria media; [1])	Herbicidal efficacy against VIOTR (Viola tricolor; [1])	Herbicidal efficacy against AMARE (Amaranthus retroflexus)	Herbicidal efficacy against MATIN (Matricaria inodora; [2])	Herbicidal efficacy against STEME (Stellaria media; [2])	Herbicidal efficacy against VIOTR (Viola tricolor; [2])	Herbicidal efficacy against VERPE (Veronica persica)
Cc1ccc2c(c1)[C@H](Nc1nc3n(n1)CCN(C(=O)c1cccc(C(F)(F)F)c1)C3)CCC2 [Example I-183]	90%	100%	90%	–	–	–	–	–
Cc1ccc2c(c1)[C@H](Nc1nc3n(n1)CCN(C(=O)c1ccccc1Cl)C3)CCC2 [Example I-184]	90%	100%	100%	–	–	–	–	–
Cc1ccc2c(c1)[C@H](Nc1nc3n(n1)CCN(C(=O)c1cccc(Cl)c1)C3)CCC2 [Example I-185]	90%	100%	100%	–	–	–	–	–
Cc1ccc2c(c1)[C@H](Nc1nc3n(n1)CCN(C(=O)c1ccc(Cl)cc1)C3)CCC2 [Example I-186]	80%	100%	100%	–	–	–	–	–
c1ccc2c(c1)OCCC2Nc1nc2n(n1)CCCCS2 (stereo not drawn) [Example I-211]	100%	100%	100%	–	–	–	–	–
c1ccc2c(c1)CCC2Nc1nc2n(n1)CCCCS2 (stereo not drawn) [Example I-212]	100%	100%	100%	–	–	–	–	–
c1ccc2c(c1)CCCC2Nc1nc2n(n1)CCCCS2 (stereo not drawn) [Example I-216]	100%	100%	100%	–	–	–	–	–
O=C1CCn2nc(NC3CCc4ccccc43)nc2N1CC1CCCCC1 (stereo not drawn) [Example I-223]	90%	100%	90%	–	–	–	–	–
O=C1CCn2nc(NC3CCCc4ccccc43)nc2N1CC1CC1 (stereo not drawn) [Example I-228]	100%	100%	100%	–	–	–	–	–
O=S1(=O)CCCCn2nc(NC3CCc4ccccc43)nc21 (stereo not drawn) [Example I-236]	100%	100%	100%	–	–	–	–	–
O=S1(=O)CCCn2nc(NC3CCOc4ccccc43)nc21 (stereo not drawn) [Example I-242]	100%	80%	–	–	–	–	–	–
O=S1(=O)CCCn2nc(NC3CCCc4ccccc43)nc21 (stereo not drawn) [Example I-252]	100%	100%	–	–	–	–	–	–
O=C1CCn2nc(NC3CCOc4ccccc43)nc2N1CC1CCCCC1 (stereo not drawn) [Example I-255]	–	90%	100%	–	–	–	–	–
CC(C)N1C(=O)CCn2nc(NC3CCCc4ccccc43)nc21 (stereo not drawn) [Example I-262]	–	100%	100%	–	–	–	–	–
O=C1CCn2nc(NC3CCCc4ccccc43)nc2N1CC1CCCCC1 (stereo not drawn) [Example I-271]	90%	90%	90%	–	–	–	–	–
CS(=O)(=O)N1CCCn2nc(NC3CCCc4ccccc43)nc21 (stereo not drawn) [Example I-305]	100%	100%	100%	–	–	–	–	–
Cc1ccc2c(c1)C(Nc1nc3n(n1)CCC(=O)N3Cc1ccccc1)CCC2 (stereo not drawn) [Example I-315]	–	–	–	80%	80%	90%	100%	100%
CC(=O)N1CCCn2nc(NC3CCc4ccc(C)cc43)nc21 (stereo not drawn) [Example I-320]	–	–	–	90%	100%	100%	100%	100%
Cc1ccc2c(c1)C(Nc1nc3n(n1)CCCN3S(=O)(=O)C(C)C)CCC2 (stereo not drawn) [Example I-325]	–	100%	–	–	–	–	–	–
Cc1ccc2c(c1)C(Nc1nc3n(n1)CCCN3S(=O)(=O)C1CC1)CC2 (stereo not drawn) [Example I-336]	–	–	–	100%	100%	100%	100%	100%
CCN1CCn2nc(N[C@@H]3CCCc4ccc(C)cc43)nc2C1 [Example I-343]	–	–	–	100%	100%	100%	100%	100%
